Test results: paper PMC12017303 (Science Advances, 2025)

Tested on: α-HCoV 229E, β-HCoV OC43, MERS-CoV, SARS-CoV, SARS-CoV-2 variants (Delta, BA.2)
Format: cell-based
Conditions: read-out: EC50 against all tested variants

C#CCn1c(C)c(-n2nnc3ccccc32)c(=O)n(-c2cncc3ccccc23)c1=O [AVI-4516]
EC50: < 3000 nM
